# Laboratory results published in patent US20260308186A1, “STAT DEGRADERS AND USES THEREOF” (Recludix Pharma, Inc., priority 2023, published 2026).
# Read-outs that look alike come from different tables or passages of the source.
# Tests used:
# [1] = target: T1, pSTAT3 (Homo sapiens, UniProt P40763); assay: MSD-pSTAT-PBMC Assay, pSTAT3 (IL-6 stimulated PBMC); assay type: cell-based; settings: read-out: pSTAT3 IC50, compound 3 hrs, then 10 ng/mL IL-6 for 10 min, pY705-STAT3
# T1 construct: pY705-STAT3 MSD read-out
# T1 sequence (P40763 whole entry): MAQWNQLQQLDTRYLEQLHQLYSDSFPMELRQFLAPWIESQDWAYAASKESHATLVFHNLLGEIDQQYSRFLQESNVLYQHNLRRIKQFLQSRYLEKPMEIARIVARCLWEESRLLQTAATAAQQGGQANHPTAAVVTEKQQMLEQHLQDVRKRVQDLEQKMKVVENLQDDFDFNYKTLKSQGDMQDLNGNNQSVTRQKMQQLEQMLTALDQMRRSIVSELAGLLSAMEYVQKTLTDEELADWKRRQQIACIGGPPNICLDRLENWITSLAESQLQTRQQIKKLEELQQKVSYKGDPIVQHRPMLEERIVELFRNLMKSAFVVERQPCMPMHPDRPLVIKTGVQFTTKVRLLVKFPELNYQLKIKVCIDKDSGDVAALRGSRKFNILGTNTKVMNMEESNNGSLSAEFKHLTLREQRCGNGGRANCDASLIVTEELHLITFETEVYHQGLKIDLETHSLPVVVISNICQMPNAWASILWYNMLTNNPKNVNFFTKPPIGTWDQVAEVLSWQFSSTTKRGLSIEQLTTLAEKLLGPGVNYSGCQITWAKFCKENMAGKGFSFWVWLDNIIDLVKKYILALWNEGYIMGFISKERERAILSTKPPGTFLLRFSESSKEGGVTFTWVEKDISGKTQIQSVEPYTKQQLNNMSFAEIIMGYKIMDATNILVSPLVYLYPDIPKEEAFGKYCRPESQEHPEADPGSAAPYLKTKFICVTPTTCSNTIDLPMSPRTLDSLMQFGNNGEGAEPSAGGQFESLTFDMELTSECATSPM
# Source text: Cryopreserved Peripheral Blood Mononuclear Cells (PBMC) are from AllCells. Recombinant Human IL-4 and IL-6 are from Peprotech. Mouse monoclonal anti-STAT3 antibody, rabbit monoclonal anti-pY705-STAT3 antibody, rabbit monoclonal Anti-pY641-STAT6 antibody, and lysis buffer are from Cell Signaling Technology (CST). Mouse monoclonal anti-STAT6 antibody is from BioLegend. Assay plates, blocker, and anti-rabbit secondary antibody are from Meso Scale Discovery (MSD).
# Cryopreserved PBMCs were thawed out and allowed to recover overnight in IMDM+10% heat-inactivated FBS prior to plating 50,000 (STAT3) or 25,000 (STAT6) cells per well in 96-well U-bottom tissue culture plates. Cells were treated with compound for 3 hrs. then stimulated with 10 ng/mL IL-6 (STAT3) or 1 ng/mL IL-4 (STAT6) for 10 min. Cells were then spun down and washed with ice-cold PBS prior to lysing the cell pellet with 1× lysis buffer (CST) with 1×HALT protease and phosphatase inhibitor cocktail (Thermo). Lysates were transferred to and incubated overnight at 4° C. with shaking in QuickPlex 96-well high bind assay plates (MSD) pre-coated overnight with 30 μL per well of 0.6 μg/mL mouse monoclonal anti-STAT3 antibody (STAT3) or 2 μg/mL mouse monoclonal anti-STAT6 antibody (STAT6) in 1×PBS, and pre-blocked for 1 hour with 3% Blocker-A (MSD). Captured protein in the assay plates were then washed and probed with 25 μL per well of 0.25 μg/ml rabbit monoclonal anti-pY705-STAT3 antibody (STAT3) or 0.18 μg/ml rabbit monoclonal Anti-pY641-STAT6 antibody (STAT6) in 1% Blocker-A for 1 hour at room temperature with shaking, then washed and probed with 25 ul per well of 1 ug/ml Sulfo-TAG Labeled Goat Anti-Rabbit Antibody (MSD) in 1% Blocker-A for 1 hour at room temperature with shaking. Assay plates were then washed and 150 μL of 1× Read Buffer-T (MSD) was added to each well prior to reading on an SQ120 MSD Plate Reader. Assay signal from each sample was subtracted by the signal from unstimulated control wells and normalized to DMSO control wells. IC50 values were calculated using Graph Pad Prism Dose-Response Nonlinear Regression with variable slope. For both pSTAT3 and pSTAT6 A=≤100 nM; B=>100-1000 nM; C=>1000-3000 nM; and D=>3 μM.
# [2] = target: T2, pSTAT6 (Homo sapiens, UniProt P42226); assay: MSD-pSTAT-PBMC Assay, pSTAT6 (IL-4 stimulated PBMC); assay type: cell-based
# T2 construct: pY641-STAT6 MSD read-out
# T2 sequence (P42226 1-847): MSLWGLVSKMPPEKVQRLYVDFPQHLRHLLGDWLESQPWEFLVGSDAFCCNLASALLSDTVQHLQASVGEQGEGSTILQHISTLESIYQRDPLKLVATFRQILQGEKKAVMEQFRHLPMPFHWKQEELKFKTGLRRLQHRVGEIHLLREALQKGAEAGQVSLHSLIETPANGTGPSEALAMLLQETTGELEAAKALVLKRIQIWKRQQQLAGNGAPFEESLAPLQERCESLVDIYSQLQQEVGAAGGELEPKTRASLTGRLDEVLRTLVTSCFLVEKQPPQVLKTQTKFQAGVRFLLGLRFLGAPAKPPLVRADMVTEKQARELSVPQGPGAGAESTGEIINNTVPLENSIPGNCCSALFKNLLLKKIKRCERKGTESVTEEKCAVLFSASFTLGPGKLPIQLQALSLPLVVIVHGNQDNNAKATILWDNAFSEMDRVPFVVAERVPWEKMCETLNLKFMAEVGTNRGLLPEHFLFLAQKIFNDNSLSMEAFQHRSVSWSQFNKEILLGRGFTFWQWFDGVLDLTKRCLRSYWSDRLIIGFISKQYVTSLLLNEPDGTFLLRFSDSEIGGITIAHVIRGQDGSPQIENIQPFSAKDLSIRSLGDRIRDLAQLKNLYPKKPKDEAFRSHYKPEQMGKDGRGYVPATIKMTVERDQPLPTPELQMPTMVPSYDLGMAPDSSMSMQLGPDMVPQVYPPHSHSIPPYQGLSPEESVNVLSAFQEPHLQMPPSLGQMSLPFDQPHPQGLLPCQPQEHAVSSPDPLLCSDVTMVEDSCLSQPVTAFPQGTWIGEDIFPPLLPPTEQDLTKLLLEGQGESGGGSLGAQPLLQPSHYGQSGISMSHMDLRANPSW
# Procedure, shortened: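 Human PBMC were recovered overnight, treated 3 h with compound, then stimulated for 10 min with 10 ng/mL IL-6 (pSTAT3) or 1 ng/mL IL-4 (pSTAT6). Lysates were read by MSD sandwich immunoassay, with total STAT capture and pY705-STAT3 or pY641-STAT6 detection. Signal minus unstimulated wells was normalized to DMSO, and IC50 came from a variable-slope fit.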
# [3] = target: T3, STAT3 (Homo sapiens, UniProt P40763); assay: STAT3 Fluorescence Polarization (FP) Assay; assay type: binding; settings: recombinant STAT3 25 nM; probe 5-FAM-GpYLPQTV-NH2 2 nM; 45 min, room temperature; read-out: STAT3 FP IC50
# T3 construct: Recombinant STAT3 protein (STAT3(G127-1722))
# T3 sequence (P40763 127-722 limits assumed): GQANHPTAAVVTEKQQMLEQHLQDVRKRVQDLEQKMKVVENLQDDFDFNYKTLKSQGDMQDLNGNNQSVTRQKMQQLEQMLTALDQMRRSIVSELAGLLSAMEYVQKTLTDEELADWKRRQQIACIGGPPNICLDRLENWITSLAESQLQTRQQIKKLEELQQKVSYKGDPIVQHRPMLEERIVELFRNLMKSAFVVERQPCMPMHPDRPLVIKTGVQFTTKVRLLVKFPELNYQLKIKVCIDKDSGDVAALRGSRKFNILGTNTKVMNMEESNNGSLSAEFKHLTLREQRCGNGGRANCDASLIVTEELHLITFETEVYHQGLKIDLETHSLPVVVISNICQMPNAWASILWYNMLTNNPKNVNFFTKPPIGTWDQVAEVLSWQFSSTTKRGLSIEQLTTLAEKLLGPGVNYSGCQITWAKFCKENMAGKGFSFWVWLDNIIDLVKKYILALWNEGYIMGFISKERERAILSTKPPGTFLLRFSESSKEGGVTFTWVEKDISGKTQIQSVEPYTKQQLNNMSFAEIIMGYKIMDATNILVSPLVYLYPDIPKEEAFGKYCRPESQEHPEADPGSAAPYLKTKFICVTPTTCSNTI
# [4] = target: T4, STAT6 (Homo sapiens, UniProt P42226); assay: STAT6 Fluorescence Polarization (FP) Assay; assay type: binding; settings: recombinant STAT6(W123-T658) 250 nM; probe 5-FAM-Ap[…]-NH2 2 nM; 45 min, room temperature; read-out: STAT6 FP IC50
# T4 construct: Recombinant STAT6 protein (STAT6(W123-T658))
# T4 sequence (P42226 123-658): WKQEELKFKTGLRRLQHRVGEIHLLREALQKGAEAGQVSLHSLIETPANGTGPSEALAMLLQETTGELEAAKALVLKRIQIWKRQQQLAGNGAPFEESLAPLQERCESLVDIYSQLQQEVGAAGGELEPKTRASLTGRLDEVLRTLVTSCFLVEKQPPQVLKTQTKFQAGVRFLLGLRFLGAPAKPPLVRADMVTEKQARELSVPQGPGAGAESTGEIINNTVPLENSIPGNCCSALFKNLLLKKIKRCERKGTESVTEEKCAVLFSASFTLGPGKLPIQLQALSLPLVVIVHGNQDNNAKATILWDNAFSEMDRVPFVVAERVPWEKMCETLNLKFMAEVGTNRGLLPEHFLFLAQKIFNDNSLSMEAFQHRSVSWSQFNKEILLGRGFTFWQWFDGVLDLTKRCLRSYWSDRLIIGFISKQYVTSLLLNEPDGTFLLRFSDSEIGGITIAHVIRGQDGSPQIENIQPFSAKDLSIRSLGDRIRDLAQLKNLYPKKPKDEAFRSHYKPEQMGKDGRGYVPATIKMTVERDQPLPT
# Procedure: STAT6 Fluorescence Polarization (FP) Assay
# An FP assay was developed to determine IC50 values for test substances. Recombinant STAT6 protein (STAT6(W123-T658)) at 250 nM was combined with a fluorescently labeled, phosphotyrosine peptide probe (5-FAM-Ap[…]-NH2) at 2 nM in FP buffer (10 mM HEPES pH 7.4, 50 mM NaCl, 1 mM EDTA, 0.05% Tween 20, 2 mM DTT), 50 μL of STAT6-probe mixture was added to serial diluted compounds in black, 96-well plates (Greiner BioOne 655076) to a final concentration of 1% DMSO. Reaction components were mixed, and FP was measured after 45-minute incubation at room temperature using a Tecan Spark multimode plate reader. FP signal (mP) was plotted against the log concentration of the test substances and IC50 values were calculated by nonlinear regression analysis using GraphPad Prism software. For STAT6 FP assay. A=≤300 nM; B=>300-3000 nM; C=>3-30 μM; and D=>30 μM.
# [5] = read-out: pSTAT6 IC50, compound 3 hrs, then 1 ng/mL IL-4 for 10 min, pY641-STAT6
# [6] = compound 3 hrs, then 1 ng/mL IL-4 for 10 min, pY641-STAT6, read-out: pSTAT6 IC50
SMILES,IC50 [3] [µM],IC50 [4] [µM],"IC50 [2, 6] [µM]",IC50 [1] [µM],"IC50 [2, 5] [µM]"
"CN(C(=O)[C@@H]1CC[C@@H]2CCN(C(=O)CCCCCC#Cc3cccc4c3CN(C3CCC(=O)NC3=O)C4=O)C[C@H](NC(=O)c3cc4cc(C(F)(F)P(=O)(OCOC(=O)C(C)(C)C)OCOC(=O)C(C)(C)C)ccc4[nH]3)C(=O)N21)c1ccccc1 (stereo partly drawn) [Compound 2, ((((2-(((5S,8S,10aR)-3-(8-(2-(2,6-Dioxopiperidin-3-yl)-1-oxoisoindolin-4-yl)oct-7-ynoyl)-8-(methyl(phenyl)carbamoyl)-6-oxodecahydropyrrolo[1,2-a][1,5]diazocin-5-yl)carbamoyl)-1H-indol-5-yl)difluoromethyl)phosphoryl)bis(oxy))bis(methylene) bis(2,2-dimethylpropanoate)]",,,,1 to 3,1 to 3
"CC(=O)N1CC[C@H]2CC[C@@H](C(=O)Nc3ccc(-c4ccc(NC(=O)CCCCCC#Cc5cccc6c5CN(C5CCC(=O)NC5=O)C6=O)cc4)cc3)N2C(=O)[C@@H](NC(=O)c2cc3cc(C(F)(F)P(=O)(OCOC(=O)C(C)(C)C)OCOC(=O)C(C)(C)C)ccc3[nH]2)C1 (stereo partly drawn) [Compound 4, ((((2-(((5S,8S,10aR)-3-acetyl-8-((4′-(8-(2-(2,6-dioxopiperidin-3-yl)-1-oxoisoindolin-4-yl)oct-7-ynamido)-[1,1′-biphenyl]-4-yl)carbamoyl)-6-oxodecahydropyrrolo[1,2-a][1,5]diazocin-5-yl)carbamoyl)-1H-indol-5-yl)difluoromethyl)phosphoryl)bis(oxy))bis(methylene) bis(2,2-dimethylpropanoate)]",,,,1 to 3,> 3
"Cc1ccc2onc(C(=O)N3CC[C@H]4CC[C@@H](C(=O)N5CCN(c6cccc7c6[nH]c(=O)n7C6CCC(=O)NC6=O)CC5)N4C(=O)[C@@H](NC(=O)c4ccc5ccc(C(F)(F)P(=O)(O)O)cc5c4)C3)c2c1 (stereo partly drawn) [Compound 36, ((7-(((5S,8S,10aR)-8-(4-(1-(2,6-dioxopiperidin-3-yl)-2-oxo-2,3-dihydro-1H-benzo[d]imidazol-4-yl)piperazine-1-carbonyl)-3-(5-methylbenzo[d]isoxazole-3-carbonyl)-6-oxodecahydropyrrolo[1,2-a][1,5]diazocin-5-yl)carbamoyl)naphthalen-2-yl)difluoromethyl)phosphonic acid]",1 to 10,< 0.3,> 3,,
"CCCC(=O)SCCOP(=O)(OCCSC(=O)CCC)C(F)(F)c1ccc2sc(C(=O)N[C@H]3CN(C(=O)CCCCCC#Cc4cccc5c4CN(C4CCC(=O)NC4=O)C5=O)CC[C@H]4CC[C@@H](C(=O)N5CC(c6cnccc6N(C)C)C5)N4C3=O)cc2c1 (stereo partly drawn) [Compound 38, S,S′-(((((2-(((5S,8S,10aR)-8-(3-(4-(dimethylamino)pyridin-3-yl)azetidine-1-carbonyl)-3-(8-(2-(2,6-dioxopiperidin-3-yl)-1-oxoisoindolin-4-yl)oct-7-ynoyl)-6-oxodecahydropyrrolo[1,2-a][1,5]diazocin-5-yl)carbamoyl)benzo[b]thiophen-5-yl)difluoromethyl)phosphoryl)bis(oxy))bis(ethane-2,1-diyl)) dibutanethioate]",,,,< 0.1,

# Now from value to compound, other results behind:
IC50 [3] [µM],IC50 [4] [µM],"IC50 [2, 6] [µM]",SMILES,IC50 [1] [µM],"IC50 [2, 5] [µM]"
> 10,< 0.3,> 3,"Cc1ccc2onc(C(=O)N3CC[C@H]4CC[C@@H](C(=O)N5CCN(c6ccc7[nH]c(=O)n(C8CCC(=O)NC8=O)c7c6)CC5)N4C(=O)[C@@H](NC(=O)c4ccc5ccc(C(F)(F)P(=O)(O)O)cc5c4)C3)c2c1 (stereo partly drawn) [Compound 37, ((7-(((5S,8S,10aR)-8-(4-(3-(2,6-dioxopiperidin-3-yl)-2-oxo-2,3-dihydro-1H-benzo[d]imidazol-5-yl)piperazine-1-carbonyl)-3-(5-methylbenzo[d]isoxazole-3-carbonyl)-6-oxodecahydropyrrolo[1,2-a][1,5]diazocin-5-yl)carbamoyl)naphthalen-2-yl)difluoromethyl)phosphonic acid]",,
> 10,< 0.3,> 3,"Cc1ccc2onc(C(=O)N3CC[C@H]4CC[C@@H](C(=O)N(C)CCCCCCC#Cc5cccc6c5CN(C5CCC(=O)NC5=O)C6=O)N4C(=O)[C@@H](NC(=O)c4ccc5ccc(C(F)P(=O)(O)O)cc5c4)C3)c2c1 (stereo partly drawn) [Compound 40, ((7-(((5S,8S,10aR)-8-((8-(2-(2,6-dioxopiperidin-3-yl)-1-oxoisoindolin-4-yl)oct-7-yn-1-yl)(methyl)carbamoyl)-3-(5-methylbenzo[d]isoxazole-3-carbonyl)-6-oxodecahydropyrrolo[1,2-a][1,5]diazocin-5-yl)carbamoyl)naphthalen-2-yl)fluoromethyl)phosphonic acid]",,
